Active and inactive are the calls of the source. The calls are words filed in the database; no cut-off is given here.

The target of assay [1] is Angiopoietin-1 receptor (Homo sapiens) (UniProt Q02763). In words: Inhibition of TIE2 (unknown origin) at 1 uM by Ambit Kinomescan binding assay relative to control.
Assay [2] addresses T1, Acylglycerol kinase, mitochondrial (Homo sapiens) (UniProt Q53H12).
T1 sequence (whole entry): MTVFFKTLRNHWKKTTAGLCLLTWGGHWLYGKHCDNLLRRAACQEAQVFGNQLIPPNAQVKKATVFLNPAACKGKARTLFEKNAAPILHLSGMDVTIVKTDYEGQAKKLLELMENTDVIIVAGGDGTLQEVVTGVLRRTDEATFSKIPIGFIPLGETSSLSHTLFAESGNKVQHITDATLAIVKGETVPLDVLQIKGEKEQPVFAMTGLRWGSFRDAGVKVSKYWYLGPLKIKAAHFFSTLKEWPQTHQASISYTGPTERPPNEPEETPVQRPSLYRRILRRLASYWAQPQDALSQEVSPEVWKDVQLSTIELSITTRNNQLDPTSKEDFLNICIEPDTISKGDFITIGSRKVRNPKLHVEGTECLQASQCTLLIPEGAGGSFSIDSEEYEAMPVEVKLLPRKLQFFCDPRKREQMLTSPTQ
The assay can be described thus: Inhibition of AGK ATP labeling site in human A-375 cells at 0.05 uM by KiNativ Profiling analysis relative to control. It is filed as cell-based.

In assay [3] the target is T2, Aurora kinase A (Homo sapiens) (UniProt O14965).
T2 sequence (whole entry): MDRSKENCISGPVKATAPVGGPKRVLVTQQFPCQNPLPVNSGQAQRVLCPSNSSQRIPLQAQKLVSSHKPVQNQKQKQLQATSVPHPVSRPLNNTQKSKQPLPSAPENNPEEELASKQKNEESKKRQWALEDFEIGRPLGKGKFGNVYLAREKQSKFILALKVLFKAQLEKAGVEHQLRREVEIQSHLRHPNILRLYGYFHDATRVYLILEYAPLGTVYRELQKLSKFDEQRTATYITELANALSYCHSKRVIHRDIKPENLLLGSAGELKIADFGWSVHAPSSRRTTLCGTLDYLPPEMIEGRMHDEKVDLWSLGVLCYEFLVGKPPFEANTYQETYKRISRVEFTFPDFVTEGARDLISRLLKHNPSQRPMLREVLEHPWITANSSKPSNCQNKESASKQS
In words: Inhibition of AurA Lys2 labeling site in human A-375 cells at 0.05 uM by KiNativ Profiling analysis relative to control. Format: cell-based.

In assay [4] the target is T3, Phosphatidylinositol 5-phosphate 4-kinase type-2 beta (Homo sapiens) (UniProt P78356).
T3 sequence (whole entry): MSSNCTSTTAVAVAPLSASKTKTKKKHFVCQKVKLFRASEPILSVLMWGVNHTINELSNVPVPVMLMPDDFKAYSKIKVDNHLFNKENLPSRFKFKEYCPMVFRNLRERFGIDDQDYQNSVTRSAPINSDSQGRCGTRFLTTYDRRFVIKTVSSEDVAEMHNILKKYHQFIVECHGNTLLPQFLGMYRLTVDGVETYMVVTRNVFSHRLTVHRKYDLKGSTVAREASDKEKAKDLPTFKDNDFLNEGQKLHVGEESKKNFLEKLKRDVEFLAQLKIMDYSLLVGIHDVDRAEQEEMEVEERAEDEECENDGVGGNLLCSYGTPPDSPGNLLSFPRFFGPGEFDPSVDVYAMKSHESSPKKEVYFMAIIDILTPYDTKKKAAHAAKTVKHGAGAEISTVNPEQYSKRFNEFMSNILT
The assay can be described thus: Inhibition of PIP5K2B (unknown origin) at 10 uM by Ambit Kinomescan binding assay.

The target of assay [5] is T4, Mitogen-activated protein kinase kinase kinase 3 (Homo sapiens) (UniProt Q99759).
T4 sequence (whole entry): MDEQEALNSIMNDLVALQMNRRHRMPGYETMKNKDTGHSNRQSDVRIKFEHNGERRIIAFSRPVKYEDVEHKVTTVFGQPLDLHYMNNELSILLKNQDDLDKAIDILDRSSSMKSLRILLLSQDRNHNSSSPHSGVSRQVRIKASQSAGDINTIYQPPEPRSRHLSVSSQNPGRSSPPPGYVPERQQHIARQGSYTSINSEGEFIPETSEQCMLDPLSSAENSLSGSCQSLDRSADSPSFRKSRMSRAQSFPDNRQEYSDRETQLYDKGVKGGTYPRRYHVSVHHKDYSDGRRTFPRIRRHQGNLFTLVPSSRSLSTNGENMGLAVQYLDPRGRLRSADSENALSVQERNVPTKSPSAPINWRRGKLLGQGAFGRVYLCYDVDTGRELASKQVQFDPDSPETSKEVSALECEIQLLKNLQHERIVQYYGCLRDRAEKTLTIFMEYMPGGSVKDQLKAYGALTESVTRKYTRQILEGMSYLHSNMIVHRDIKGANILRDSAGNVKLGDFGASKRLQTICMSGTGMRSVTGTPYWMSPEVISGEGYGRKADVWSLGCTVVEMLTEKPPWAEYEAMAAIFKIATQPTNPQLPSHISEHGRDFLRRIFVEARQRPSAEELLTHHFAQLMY
The assay can be described thus: Inhibition of MAP3K3 Lys2 labeling site in human A-375 cells at 0.05 uM by KiNativ Profiling analysis relative to control. It is filed as cell-based.

Assay [6] concerns the target Misshapen-like kinase 1 (Homo sapiens) (UniProt Q8N4C8). The assay can be described thus: Inhibition of ZC3/MINK K2 labeling site in human Huh-7 cells at 10 uM by KiNativ Profiling analysis relative to control. Format: cell-based.
Assay [7] addresses T5, Scaffold protein ILK (Homo sapiens) (UniProt Q13418).
T5 sequence (whole entry): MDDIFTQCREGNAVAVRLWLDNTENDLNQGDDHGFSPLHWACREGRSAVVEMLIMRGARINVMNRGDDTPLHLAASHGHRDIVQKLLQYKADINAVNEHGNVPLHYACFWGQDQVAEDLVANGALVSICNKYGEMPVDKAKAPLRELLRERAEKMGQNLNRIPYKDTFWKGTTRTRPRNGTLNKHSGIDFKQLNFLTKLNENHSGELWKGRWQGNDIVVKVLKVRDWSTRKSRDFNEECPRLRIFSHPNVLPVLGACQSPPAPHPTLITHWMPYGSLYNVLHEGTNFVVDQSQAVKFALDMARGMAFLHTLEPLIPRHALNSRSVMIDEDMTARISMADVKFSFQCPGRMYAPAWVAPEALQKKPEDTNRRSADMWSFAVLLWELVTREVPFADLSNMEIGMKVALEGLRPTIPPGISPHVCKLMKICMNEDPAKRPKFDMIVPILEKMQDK
In words: Inhibition of ILK K1 labeling site in human Huh-7 cells at 10 uM by KiNativ Profiling analysis relative to control. It is filed as cell-based.

The target in assay [8] is Serine/threonine-protein kinase PLK1 (Homo sapiens) (UniProt P53350). In words: Inhibition of PLK1 Lys2 labeling site harbouring VIHRDLKLGNLFLNEDLEVK in human Huh-7 cell lysate at 1 uM by KiNativ Profiling analysis relative to control. Format: subcellular.
Assay [9] deals with Cyclin-dependent kinase 5 (Homo sapiens) (UniProt Q00535). In words: Inhibition of CDK5 Lys2 labeling site harbouring NVLHRDLKPQNLLINR in human Huh-7 cells at 1 uM by KiNativ Profiling analysis relative to control. Format: cell-based.
Sequence of Cyclin-dependent kinase 5 (Homo sapiens) (Q00535 whole entry, looked up): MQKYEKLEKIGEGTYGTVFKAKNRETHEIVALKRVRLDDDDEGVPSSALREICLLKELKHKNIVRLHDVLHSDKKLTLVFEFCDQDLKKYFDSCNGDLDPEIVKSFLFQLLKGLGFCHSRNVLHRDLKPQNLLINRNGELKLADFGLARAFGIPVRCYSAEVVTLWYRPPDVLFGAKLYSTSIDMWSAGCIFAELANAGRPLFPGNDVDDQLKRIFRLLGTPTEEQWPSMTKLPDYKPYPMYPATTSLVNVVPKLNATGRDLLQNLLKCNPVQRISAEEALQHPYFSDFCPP

Sequence of Serine/threonine-protein kinase PLK1 (Homo sapiens) (P53350 whole entry): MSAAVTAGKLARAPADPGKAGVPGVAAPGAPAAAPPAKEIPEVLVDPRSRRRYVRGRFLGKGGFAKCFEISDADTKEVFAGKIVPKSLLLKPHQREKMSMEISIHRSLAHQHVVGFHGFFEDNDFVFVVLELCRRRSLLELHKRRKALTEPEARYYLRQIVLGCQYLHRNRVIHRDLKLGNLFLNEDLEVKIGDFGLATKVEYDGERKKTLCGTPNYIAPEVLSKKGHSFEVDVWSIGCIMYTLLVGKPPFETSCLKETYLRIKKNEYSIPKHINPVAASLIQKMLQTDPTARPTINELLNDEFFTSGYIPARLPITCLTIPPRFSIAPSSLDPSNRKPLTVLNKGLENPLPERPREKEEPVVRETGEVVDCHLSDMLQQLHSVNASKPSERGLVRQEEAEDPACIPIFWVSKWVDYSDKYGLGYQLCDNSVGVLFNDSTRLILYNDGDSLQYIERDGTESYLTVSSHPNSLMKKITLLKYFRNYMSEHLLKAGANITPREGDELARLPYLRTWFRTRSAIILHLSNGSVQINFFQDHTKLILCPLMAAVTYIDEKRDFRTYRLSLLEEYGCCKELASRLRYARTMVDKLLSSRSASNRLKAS
Sequence of Angiopoietin-1 receptor (Homo sapiens) (Q02763 whole entry): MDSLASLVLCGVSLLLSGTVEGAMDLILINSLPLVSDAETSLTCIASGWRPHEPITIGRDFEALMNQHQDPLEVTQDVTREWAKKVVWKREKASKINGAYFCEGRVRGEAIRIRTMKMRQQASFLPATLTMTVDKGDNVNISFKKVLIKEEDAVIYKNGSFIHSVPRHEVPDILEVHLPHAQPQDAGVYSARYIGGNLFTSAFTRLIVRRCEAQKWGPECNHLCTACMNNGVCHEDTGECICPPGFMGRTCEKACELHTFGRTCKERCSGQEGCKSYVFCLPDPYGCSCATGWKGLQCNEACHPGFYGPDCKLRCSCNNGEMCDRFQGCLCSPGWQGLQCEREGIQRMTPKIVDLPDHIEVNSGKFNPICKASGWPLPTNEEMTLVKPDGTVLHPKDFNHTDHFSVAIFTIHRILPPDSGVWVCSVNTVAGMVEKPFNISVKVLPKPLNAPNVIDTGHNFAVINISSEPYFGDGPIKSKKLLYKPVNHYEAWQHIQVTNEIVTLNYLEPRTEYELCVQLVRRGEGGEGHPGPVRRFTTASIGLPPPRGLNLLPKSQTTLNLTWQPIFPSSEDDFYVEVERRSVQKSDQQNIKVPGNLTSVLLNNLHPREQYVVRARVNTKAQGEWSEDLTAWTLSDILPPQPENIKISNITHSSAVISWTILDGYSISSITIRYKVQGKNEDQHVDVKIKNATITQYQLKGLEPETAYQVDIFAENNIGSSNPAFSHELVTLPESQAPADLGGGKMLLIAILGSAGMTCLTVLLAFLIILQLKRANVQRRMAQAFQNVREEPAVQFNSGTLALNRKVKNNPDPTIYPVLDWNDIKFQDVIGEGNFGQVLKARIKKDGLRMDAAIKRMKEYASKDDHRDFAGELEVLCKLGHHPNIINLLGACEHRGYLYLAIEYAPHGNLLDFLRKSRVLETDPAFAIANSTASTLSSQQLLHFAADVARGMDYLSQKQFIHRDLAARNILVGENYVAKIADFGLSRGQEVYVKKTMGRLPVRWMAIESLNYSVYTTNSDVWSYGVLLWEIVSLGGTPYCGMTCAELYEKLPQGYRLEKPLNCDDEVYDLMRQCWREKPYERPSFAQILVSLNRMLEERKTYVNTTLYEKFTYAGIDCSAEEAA
Sequence of Misshapen-like kinase 1 (Homo sapiens) (Q8N4C8 whole entry, looked up): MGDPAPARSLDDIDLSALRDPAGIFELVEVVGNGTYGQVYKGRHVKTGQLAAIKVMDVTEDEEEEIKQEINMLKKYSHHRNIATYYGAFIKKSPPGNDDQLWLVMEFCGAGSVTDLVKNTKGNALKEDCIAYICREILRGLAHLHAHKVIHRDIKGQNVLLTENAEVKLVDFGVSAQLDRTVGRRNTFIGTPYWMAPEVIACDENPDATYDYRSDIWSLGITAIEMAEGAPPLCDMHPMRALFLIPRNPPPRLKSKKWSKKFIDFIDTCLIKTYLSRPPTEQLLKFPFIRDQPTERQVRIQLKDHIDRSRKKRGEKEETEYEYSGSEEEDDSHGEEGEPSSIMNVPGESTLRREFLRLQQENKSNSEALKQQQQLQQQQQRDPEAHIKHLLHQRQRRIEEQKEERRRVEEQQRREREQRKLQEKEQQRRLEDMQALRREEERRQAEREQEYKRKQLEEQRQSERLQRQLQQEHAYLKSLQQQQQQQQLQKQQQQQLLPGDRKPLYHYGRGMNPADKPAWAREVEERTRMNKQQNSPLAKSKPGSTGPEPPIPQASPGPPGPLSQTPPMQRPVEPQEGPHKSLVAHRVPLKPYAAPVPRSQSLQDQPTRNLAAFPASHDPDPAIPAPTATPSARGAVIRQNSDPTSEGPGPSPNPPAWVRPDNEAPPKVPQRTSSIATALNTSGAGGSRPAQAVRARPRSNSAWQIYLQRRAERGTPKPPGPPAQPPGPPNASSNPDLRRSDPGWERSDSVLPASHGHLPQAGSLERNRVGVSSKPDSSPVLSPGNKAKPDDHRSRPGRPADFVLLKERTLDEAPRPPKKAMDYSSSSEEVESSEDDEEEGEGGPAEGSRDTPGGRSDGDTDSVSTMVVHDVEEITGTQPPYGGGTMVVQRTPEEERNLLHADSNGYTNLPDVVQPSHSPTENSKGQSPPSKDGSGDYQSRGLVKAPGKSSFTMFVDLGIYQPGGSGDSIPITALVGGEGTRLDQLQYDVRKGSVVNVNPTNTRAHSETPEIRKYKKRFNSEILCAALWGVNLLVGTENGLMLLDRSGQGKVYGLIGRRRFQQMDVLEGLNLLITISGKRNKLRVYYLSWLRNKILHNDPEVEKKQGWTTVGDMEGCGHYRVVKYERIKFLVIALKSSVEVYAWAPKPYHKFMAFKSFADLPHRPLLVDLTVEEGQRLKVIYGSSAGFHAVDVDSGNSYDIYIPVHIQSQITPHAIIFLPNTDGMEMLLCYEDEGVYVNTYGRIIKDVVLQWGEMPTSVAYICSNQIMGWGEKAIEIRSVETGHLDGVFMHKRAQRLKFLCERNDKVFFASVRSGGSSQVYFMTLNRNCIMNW

The inhibition is the change of the read-out against control, counted positive when it falls. With `CCN1CCN(Cc2ccc(NC(=O)c3ccc(C)c(/C=C/c4cnc5[nH]ccc5c4OC)c3)cc2C(F)(F)F)CC1`, the inhibition in [1] was 0%; in assay [2], 16.8%; in assay [3], -9.1%.

On to `CCN1CCN(Cc2ccc(NC(=O)c3ccc(C)c(Oc4ccnc5[nH]ccc45)c3)cc2C(F)(F)F)CC1`, for which the inhibition result in assay [4] was “inactive”. Moreover, the values for the inhibition in [5], in assay [6] and in assay [7] were 7.6%, 72.6% and -5.7%, respectively.

Take `CNc1cc(Oc2cc(C(=O)Nc3cc(N4CCN(C)CC4)cc(C(F)(F)F)c3)ccc2C)ncn1`: the inhibition in assay [8] was determined as 10.8%; in assay [9] it was 1.1%.

For the origin of these results see ChEMBL document CHEMBL5696442, “Discovery of type II inhibitors of TGFβ-activated kinase 1 (TAK1) and mitogen-activated protein kinase kinase kinase kinase 2 (MAP4K2)” (J Med Chem, 2015).
